Experimental data: patent EP3911180B1, “PAENIBACILLUS WYNNII BETA-GALACTOSIDASE FOR THE PRODUCTION OF LACTOSE-DEPLETED AND GOS-ENRICHTED DAIRY PRODUCTS” (Universität Hohenheim, priority 2019, dated 2020)
“Also recorded” adds a separate entry of the source. Where two headings read alike, the source gives them in different places.

Experiments:
[1] = test system: Bacillus circulans beta-galactosidase; settings: phosphate buffer, 40 °C; read-out: KM,lactose; cited from earlier work
[2] = test system: Metagenome M1 beta-galactosidase (metagenome beta-galactosidase 3J33 as described in EP 2 530 148 A1); assay: Turnover number with lactose as substrate; assay type: biochemical; settings: 8 °C
Method: To determine the turnover number, the specific activity of the enzymes on lactose at 8 °C was determined. The following formula was used to determine the turnover number: Kcat = (Vmax)/([E]) [s^−1] [formula] • Kcat = turnover number [s^-1] • Vmax = maximum activity [nkat/mg] • [E] = enzyme concentration […]
In Table 9, the calculated turnover numbers of the two beta-galactosidases are depicted. Table 9: Turnover numbers of the beta-galactosidases M1 and P. wynnii (8 °C, lactose as substrate)

[3] = target: T1, P. wynnii beta-galactosidase (SEQ ID NO: 1) (Paenibacillus wynnii, UniProt A0A098MAF9); assay: Determination of KM with lactose as substrate; assay type: biochemical; settings: Novo-buffer, 8 °C
Method: For the substrate solution 400 mM lactose was dissolved in Novo buffer (the composition of which is depicted in Table 4). The beta-galactosidase activity was determined in a thermo shaker in 1.5 mL reaction tubes at 8°C. The enzyme mix and the lactose solution were preincubated at 8 °C for 12 min. To start the enzymatic reaction 100 µL of the enzyme mix were added to 100 µL lactose solution. The reaction was carried out for 5 min at 8 °C. The reaction was stopped by adding 300 µL 1 M HClO4 to the enzyme-substrate-mix. The mix was kept on ice for 5 min before it was centrifuged at 13 000 rcf and 4 °C for 5 min. 160 µL of the supernatant were transferred to 75 µL 2 M KOH to neutralise the solution. The neutralisation step was checked using pH paper and the pH was adjusted if necessary. […]
The kinetic parameters were determined using the natural substrate lactose. […]
For the determination of the KM values of P. wynnii beta-galactosidase lactose concentrations ranged from 0.76 mM to 97.5 mM. […] The enzyme activities were measured under initial reaction velocity conditions of the enzyme. The reaction times for the initial velocity of the enzymes were determined in previous experiments. The kinetic parameter KM was analysed using the Enzyme Kinetics Module in SigmaPlot 12.5 (Systat Software, Inc., San Jose, USA). […]

[4] = test system: beta-galactosidase PbGal2A from P. barengoltzii; settings: read-out: KM,lactose, cited from earlier work
[5] = test system: Metagenome M1 beta-galactosidase (metagenome beta-galactosidase 3J33 as described in EP 2 530 148 A1); settings: 8 °C, read-out: KM,lactose, cited from earlier work
[6] = test system: Metagenome M1 beta-galactosidase (metagenome beta-galactosidase 3J33 as described in EP 2 530 148 A1); assay: Influence of glucose and galactose on the enzyme activity, oNPGal assay; assay type: biochemical; settings: 200 mM galactose, 37 °C, substrate oNPGal
Method: (§1) The enzyme activity of beta-galactosidase was determined in 1.2 mL scale using oNPGal as substrate at 37 °C. For the assays a final concentration of 25 mM oNPGal dissolved in 100 mM potassium phosphate buffer (pH 6.75 containing 5 mM magnesium chloride) was used. Substrate and enzyme solution were preheated separately. The reaction was performed in a temperature-controlled cuvette using a spectrophotometer by adding enzyme solution to oNPGal solution. The increase of absorbance at 405 nm as result of o-nitrophenol release was measured for 2 min. The activity was calculated from the slope of the straight line.
(§2) Due to the experimental setup (analysis), it was not possible to measure the influence of glucose with the natural substrate lactose.

[7] = target: T1, P. wynnii beta-galactosidase (SEQ ID NO: 1); assay: as above; assay type: biochemical; settings: pH 6.75, 200 mM Galactose, 37 °C, read-out: Relative enzyme activity
Method: as §1, §2

[8] = target: K. lactis beta-galactosidase (Kluyveromyces lactis, UniProt P00723); settings: 200 mM galactose, 37 °C, substrate oNPGal; cited from earlier work
[9] = test system: Metagenome M1 beta-galactosidase (metagenome beta-galactosidase 3J33 as described in EP 2 530 148 A1); assay: Influence of galactose on the enzyme activity, lactose assay; assay type: biochemical; settings: 8 °C; for Relative enzyme activity: Lactose-Assay
Method: (§3) For the substrate solution 400 mM lactose was dissolved in Novo buffer (the composition of which is depicted in Table 4). The beta-galactosidase activity was determined in a thermo shaker in 1.5 mL reaction tubes at 8°C. The enzyme mix and the lactose solution were preincubated at 8 °C for 12 min. To start the enzymatic reaction 100 µL of the enzyme mix were added to 100 µL lactose solution. The reaction was carried out for 5 min at 8 °C. The reaction was stopped by adding 300 µL 1 M HClO4 to the enzyme-substrate-mix. The mix was kept on ice for 5 min before it was centrifuged at 13 000 rcf and 4 °C for 5 min. 160 µL of the supernatant were transferred to 75 µL 2 M KOH to neutralise the solution. The neutralisation step was checked using pH paper and the pH was adjusted if necessary. The solution was kept on ice for another 5 min before it was centrifuged at 13 000 rcf at 4 °C for 5 min. All assays were performed in triplicate. Table 4: Composition of Novo buffer
The influence of galactose was also investigated with the metagenome M1 beta-galactosidase as described before. The determination of the enzyme activity in Novo buffer was conducted with a lactose concentration of 125 mM and 50 mM respectively. To this solutions 125 or 200 mM galactose were added.

[10] = test system: P. barengoltzii beta-galactosidase; settings: 200 mM galactose, 45 °C, substrate oNPGal; cited from earlier work
[11] = target: commercial beta-galactosidase Opti-Lactase (K. lactis) (Kluyveromyces lactis, UniProt P00723); assay: Influence of galactose on the enzyme activity, lactose assay; assay type: biochemical; settings: 200 mM galactose, 8 °C, substrate Lactose
Method: as §3
(§4) The influence of galactose was investigated with P. wynnii beta-galactosidase and the commercial beta-galactosidase Opti-Lactase (Optiferm GmbH, Oy-Mittelberg (D)). The determination of the enzyme activity in Novo buffer was conducted with a lactose concentration of 125 mM and 50 mM respectively. To this solutions 125 or 200 mM galactose were added. The determination of the enzyme activity was performed as described above.
(§5) First, 125 and 200 mM galactose respectively were added to 125 mM lactose (A). The enzyme activity of the technical enzyme preparation decreased with increasing galactose concentration. An activity of 51.8 % was determined. […] In another experiment 200 mM galactose was added to 50 mM lactose (B). Here, the same effect as in (A) could be observed.

[12] = target: T1, P. wynnii beta-galactosidase (SEQ ID NO: 1); assay: as above; assay type: biochemical; settings: 8 °C
Method: as §3, §4, §5

T1 sequence (A0A098MAF9 1-1042): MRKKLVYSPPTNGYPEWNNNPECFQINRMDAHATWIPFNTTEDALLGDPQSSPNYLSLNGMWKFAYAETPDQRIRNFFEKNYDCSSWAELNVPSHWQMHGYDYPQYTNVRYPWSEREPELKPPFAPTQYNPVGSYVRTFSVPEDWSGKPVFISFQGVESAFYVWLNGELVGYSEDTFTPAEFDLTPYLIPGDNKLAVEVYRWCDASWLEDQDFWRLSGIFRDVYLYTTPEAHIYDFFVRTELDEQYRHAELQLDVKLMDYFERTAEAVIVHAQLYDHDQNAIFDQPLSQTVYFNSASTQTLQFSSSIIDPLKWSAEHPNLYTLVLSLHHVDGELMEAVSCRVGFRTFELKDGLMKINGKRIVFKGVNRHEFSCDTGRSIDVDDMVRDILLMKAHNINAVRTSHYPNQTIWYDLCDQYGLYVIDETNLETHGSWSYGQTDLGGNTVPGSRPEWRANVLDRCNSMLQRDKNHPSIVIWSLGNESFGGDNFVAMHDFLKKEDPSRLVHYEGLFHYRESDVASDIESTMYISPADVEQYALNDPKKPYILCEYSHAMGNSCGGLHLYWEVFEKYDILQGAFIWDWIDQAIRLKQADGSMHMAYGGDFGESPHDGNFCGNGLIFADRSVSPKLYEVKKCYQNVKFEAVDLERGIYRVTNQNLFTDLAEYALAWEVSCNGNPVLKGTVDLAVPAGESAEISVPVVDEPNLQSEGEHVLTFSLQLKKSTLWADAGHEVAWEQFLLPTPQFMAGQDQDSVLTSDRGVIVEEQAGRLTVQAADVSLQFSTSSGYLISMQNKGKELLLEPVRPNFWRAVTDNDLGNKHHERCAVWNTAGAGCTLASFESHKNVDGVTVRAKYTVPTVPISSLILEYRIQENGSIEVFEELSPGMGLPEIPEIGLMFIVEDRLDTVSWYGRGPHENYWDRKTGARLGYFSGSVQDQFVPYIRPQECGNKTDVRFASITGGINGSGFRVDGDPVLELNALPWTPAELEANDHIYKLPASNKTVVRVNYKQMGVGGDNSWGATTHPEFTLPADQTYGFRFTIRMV
Chain of K. lactis beta-galactosidase (P00723 whole entry): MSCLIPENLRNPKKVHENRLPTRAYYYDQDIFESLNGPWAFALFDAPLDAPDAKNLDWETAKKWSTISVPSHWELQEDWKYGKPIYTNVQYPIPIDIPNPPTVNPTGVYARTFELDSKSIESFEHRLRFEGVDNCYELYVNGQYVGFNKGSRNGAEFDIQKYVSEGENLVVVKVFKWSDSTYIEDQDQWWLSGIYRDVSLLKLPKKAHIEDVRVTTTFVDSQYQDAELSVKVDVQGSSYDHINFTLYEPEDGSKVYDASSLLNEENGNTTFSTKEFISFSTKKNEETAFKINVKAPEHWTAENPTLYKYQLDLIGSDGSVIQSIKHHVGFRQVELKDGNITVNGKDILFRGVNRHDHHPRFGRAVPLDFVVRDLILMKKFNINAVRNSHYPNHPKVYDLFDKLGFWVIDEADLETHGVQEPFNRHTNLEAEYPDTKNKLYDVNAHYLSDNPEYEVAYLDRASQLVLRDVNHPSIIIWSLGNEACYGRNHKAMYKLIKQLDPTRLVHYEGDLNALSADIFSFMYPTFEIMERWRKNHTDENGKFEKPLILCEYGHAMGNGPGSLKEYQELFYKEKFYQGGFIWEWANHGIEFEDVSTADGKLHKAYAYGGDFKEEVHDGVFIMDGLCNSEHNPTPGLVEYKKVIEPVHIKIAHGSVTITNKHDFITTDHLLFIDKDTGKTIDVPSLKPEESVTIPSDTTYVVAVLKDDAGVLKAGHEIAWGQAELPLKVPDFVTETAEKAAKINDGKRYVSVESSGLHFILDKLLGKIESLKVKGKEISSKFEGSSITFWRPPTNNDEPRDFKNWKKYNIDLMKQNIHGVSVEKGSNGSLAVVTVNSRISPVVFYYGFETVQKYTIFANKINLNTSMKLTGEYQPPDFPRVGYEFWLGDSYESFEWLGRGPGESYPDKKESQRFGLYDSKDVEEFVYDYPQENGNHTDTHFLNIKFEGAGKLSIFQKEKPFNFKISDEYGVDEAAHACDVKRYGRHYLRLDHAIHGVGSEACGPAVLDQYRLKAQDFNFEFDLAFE
Chain of commercial beta-galactosidase Opti-Lactase (K. lactis) (P00723 whole entry): as above

In the case of `OC[C@H]1O[C@@H](O[C@H]2[C@H](O)[C@@H](O)C(O)O[C@@H]2CO)[C@H](O)[C@@H](O)[C@H]1O` (stereo partly drawn) [lactose], the Km [1] is listed as 16 mM, the “Turnover number (Kcat)” value [2] is listed as 2.466 s⁻¹ and the Km [3] is listed as 0.34 to 0.52 mM. The Km ([4]; MOPS buffer, 45 °C) was 43.3 mM, the Km [4] was 43.3 ± 1.84 mM and the Km ([5]; Novo buffer) was 1.44 mM. For the same compound, the Km ([5]; milk + Novo buffer) was 2.1 mM.

For `OC[C@H]1OC(O)[C@H](O)[C@@H](O)[C@H]1O` (stereo partly drawn) [galactose, D-galactose], the “Influence of galactose (200 mM)” value [6] is listed as 100 % EA, the remaining activity at 200000 µM [7] is listed as 118% and the “Influence of galactose (200 mM)” value [8] is listed as 75 % EA. It also gave a Relative enzyme activity ([9]; 50 mM lactose + 200 mM galactose) of 100%, a Relative enzyme activity ([9]; 125 mM lactose + 125 mM galactose) of 97% and a Relative enzyme activity ([9]; 125 mM lactose + 200 mM galactose) of 101%. The inhibition by galactose ([9]; 125 or 200 mM galactose, 125 or 50 mM lactose, Novo buffer) was “did also not have an inhibitory effect”, the “Influence of galactose (200 mM)” value [10] was 43.27 % EA and the activity at 200000 µM [11] was 32.5%. It also gave an activity at 200000 µM ([12]; 200 mM galactose, substrate Lactose) of 100%, a remaining activity at 200000 µM ([12]; 5 min, 50 mM lactose + 200 mM galactose, Lactose-Assay, read-out: Relative enzyme activity) of 110% and a remaining activity at 125000 µM ([12]; 5 min, 125 mM lactose + 125 mM galactose, Lactose-Assay, read-out: Relative enzyme activity) of 108%. The remaining activity at 200000 µM ([12]; 5 min, 125 mM lactose + 200 mM galactose, Lactose-Assay, read-out: Relative enzyme activity) was 115% and the inhibition by galactose ([12]; galactose up to 200 mM, Novo buffer, lactose as substrate) was “No inhibition; also recorded: did not have an inhibitory effect”.
